Molecular target: T1, γ-secretase, Aβ(1-42) production, SH-SY5Y neuroblastoma cells overexpressing SPA4CT (Homo sapiens, UniProt P49768)
T1 construct: Human SH-SY5Y neuroblastoma cells overexpressing the direct γ-secretase substrate SPA4CT; endogenous in cells; host or cells: human SH-SY5Y neuroblastoma cells stably overexpressing the substrate SPA4CT, induced with sodium butyrate
Test: Cell-Based γ-Secretase Assay, Aβ(42) detection
Settings: overnight incubation, read-out: IC50 values for Aβ(1-42) inhibition
Description: Cell-Based γ-Secretase Assay
Human SH-SY5Y neuroblastoma cells overexpressing the direct γ-secretase substrate SPA4CT were induced with sodium butyrate (10 mM) for 4 hours prior to plating. Cells were plated at 35,000 cells/well/100 μl in 96-well plates in phenol red-free MEM/10% FBS, 50 mM HEPES, 1% Glutamine and incubated for 2 hrs at 37° C., 5% CO2.
Compounds for testing were diluted into Me2SO to give a ten point dose-response curve. Typically 10 μl of these diluted compounds in Me2SO were further diluted into 182 μl dilution buffer (phenol red-free MEM/10% FBS, 50 mM HEPES, 1% Glutamine) and 10 μl of each dilution was added to the cells in 96-well plates (yielding a final Me2SO concentration of 0.5%). Appropriate vehicle and inhibitor controls were used to determine the window of the assay.
After incubation overnight at 37° C., 5% CO2, 25 μl and 50 μl media were transferred into a standard Meso avidin-coated 96-well plate for detection of Aβ(40) and Aβ(42) peptides, respectively. 25 μl Meso Assay buffer (PBS, 2% BSA, 0.2% Tween-20) was added to the Aβ(40) wells followed by the addition of 25 μl of the respective antibody premixes to the wells:
Aβ(42) premix: 1 μg/ml ruthenylated G2-11 antibody, 4 μg/ml biotinylated 4G8 antibody diluted in Origen buffer
(Biotinylated 4G8 antibody supplied by Signet Pathology Ltd; G2-10 and G2-11 antibodies supplied by Chemicon)
After overnight incubation of the assay plates on a shaker at 4° C., the Meso Scale Sector 6000 Imager was calibrated according to the manufacturer's instructions. After washing the plates 3 times with 150 μl of PBS per well, 150 μl Meso Scale Discovery read buffer was added to each well and the plates were read on the Sector 6000 Imager according to the manufacturer's instructions.
LD50 and IC50 values for inhibition of Aβ(40) and Aβ(42) were calculated by nonlinear regression fit analysis using the appropriate software (eg. Excel fit). The total signal and the background were defined by the corresponding Me2SO and inhibitor controls.

IC50	Structure (SMILES)
3 to 6 µM	Cc1ccc(C(C)(C)C)cc1Nc1nc(N2CCC(n3ccnn3)CC2)ncc1F [Example 1, N-(5-tert-butyl-2-methylphenyl)-5-fluoro-2-[4-(1H-1,2,3-triazol-1-yl)piperidin-1-yl]pyrimidin-4-amine]
3 to 6 µM	CCN(CC)c1ccc(Nc2ccnc(N3CCC4(CCCN4)CC3)n2)c(C)c1 [Example 4, N1-[2-(1,8-diazaspiro[4.5]dec-8-yl)pyrimidin-4-yl]-N4,N4-diethyl-2-methylbenzene-1,4-diamine]
3 to 6 µM	CCN(CC)c1ccc(Nc2ccnc(N3CCC(n4ccnc4)CC3)n2)c(C)c1 [Example 7, N4,N4-diethyl-N1-{2-[4-(1H-imidazol-1-yl)piperidin-1-yl]pyrimidin-4-yl}-2-methylbenzene-1,4-diamine]
3 to 6 µM	CCN(CC)c1ccc(Nc2ccnc(N3CCC(n4ccnn4)CC3)n2)c(C)c1 [Example 8, N4,N4-diethyl-2-methyl-N1-{2-[4-(1H-1,2,3-triazol-1-yl)piperidin-1-yl]pyrimidin-4-yl}benzene-1,4-diamine]
0.5 to 1.5 µM	CCOc1cc(C)c(Nc2ccnc(N3CCC(n4ccnn4)CC3)n2)cc1C(C)C [Example 10, N-(4-ethoxy-5-isopropyl-2-methylphenyl)-2-[4-(1H-1,2,3-triazol-1-yl)piperidin-1-yl]pyrimidin-4-amine]
< 0.5 µM	CCOc1cc(C)c(Nc2ccnc(N3CCC(n4ccnc4)CC3)n2)cc1C(C)C [Example 11, N-(4-ethoxy-5-isopropyl-2-methylphenyl)-2-[4-(1H-1,2,3-imidazol-1-yl)piperidin-1-yl]pyrimidin-4-amine]
3 to 6 µM	Cc1ccc(C(C)C)cc1Nc1ccnc(N2CCC(n3ccnn3)CC2)n1 [Example 12, N-(5-isopropyl-2-methylphenyl)-2-[4-(1H-1,2,3-triazol-1-yl)piperidin-1-yl]pyrimidin-4-amine]
1.5 to 3 µM	CCN(CC)c1ccc(Nc2ccnc(N3CCC(c4nnc(-c5ccccc5)o4)CC3)n2)c(C)c1 [Example 14, N4,N4-diethyl-2-methyl-N1-{2-[4-(5-phenyl-1,3,4-oxadiazol-2-yl)piperidin-1-yl]pyrimidin-4-yl}benzene-1,4-diamine]
0.5 to 1.5 µM	Cc1ccc(C(C)(C)C)cc1Nc1ccnc(N2CCC(n3ccnn3)CC2)n1 [Example 15, N-(5-tert-butyl-2-methylphenyl)-2-[4-(1H-1,2,3-triazol-1-yl)piperidin-1-yl]pyrimidin-4-amine]
0.5 to 1.5 µM	Cc1ccc(C(C)(C)C)cc1Nc1ccnc(N2CCC(n3ccnc3)CC2)n1 [Example 16, N-(5-tert-butyl-2-methylphenyl)-2-[4-(1H-imidazol-1-yl)piperidin-1-yl]pyrimidin-4-amine]
3 to 6 µM	Cc1ccc(C(C)(C)C)cc1Nc1nc(N2CCC(n3ccnc3)CC2)ncc1F [Example 17, N-(5-tert-butyl-2-methylphenyl)-5-fluoro-2-[4-(1H-imidazol-1-yl)piperidin-1-yl]pyrimidin-4-amine]
3 to 6 µM	Cc1ccc(C(C)(C)C)cc1Nc1cc(S(C)(=O)=O)nc(N2CCC(n3ccnc3)CC2)n1 [Example 18, N-(5-tert-butyl-2-methylphenyl)-2-[4-(1H-imidazol-1-yl)piperidin-1-yl]-6-(methylsulfonyl)pyrimidin-4-amine]
1.5 to 3 µM	CCOc1cc(C)c(Nc2nc(N3CCC(n4ccnn4)CC3)ncc2Cl)cc1C(C)C [Example 19, 5-chloro-N-(4-ethoxy-5-isopropyl-2-methylphenyl)-2-[4-(1H-1,2,3-triazol-1-yl)piperidin-1-yl]pyrimidin-4-amine]
1.5 to 3 µM	CCOc1cc(C)c(Nc2nc(N3CCC(n4ccnc4)CC3)ncc2Cl)cc1C(C)C [Example 20, 5-chloro-N-(4-ethoxy-5-isopropyl-2-methylphenyl)-2-[4-(1H-imidazol-1-yl)piperidin-1-yl]pyrimidin-4-amine]
0.5 to 1.5 µM	CCOc1cc(C)c(Nc2nc(N3CCC(n4ccnn4)CC3)ncc2F)cc1C(C)C [Example 21, N-(4-ethoxy-5-isopropyl-2-methylphenyl)-5-fluoro-2-[4-(1H-1,2,3-triazol-1-yl)piperidin-1-yl]pyrimidin-4-amine]
0.5 to 1.5 µM	CCOc1cc(C)c(Nc2nc(N3CCC(n4ccnc4)CC3)ncc2F)cc1C(C)C [Example 22, N-(4-ethoxy-5-isopropyl-2-methylphenyl)-5-fluoro-2-[4-(1H-imidazol-1-yl)piperidin-1-yl]pyrimidin-4-amine]
1.5 to 3 µM	CCOc1cc(C)c(Nc2nc(N3CCC(n4cc(C)nn4)CC3)ncc2Cl)cc1C(C)C [Example 23, 5-chloro-N-(4-ethoxy-5-isopropyl-2-methylphenyl)-2-[4-(4-methyl-1H-1,2,3-triazol-1-yl)piperidin-1-yl]pyrimidin-4-amine]
< 0.5 µM	CCOc1cc(C)c(Nc2cc(C(=O)OC)nc(N3CCC(n4ccnc4)CC3)n2)cc1C(C)C [Example 24]
< 0.5 µM	CCOc1cc(C)c(Nc2cc(CO)nc(N3CCC(n4ccnc4)CC3)n2)cc1C(C)C [Example 25, {6-[(4-ethoxy-5-isopropyl-2-methylphenyl)amino]-2-[4-(1H-imidazol-1-yl)piperidin-1-yl]pyrimidin-4-yl}methanol]
